Values joined by “and” are separate entries in the source; they are usually repeats but may differ in a detail not shown here. Identical values can stand only once. “Also recorded” adds a separate entry of the source.
Columns and labels:
[1] = test system: renal fibrosis (UUO); experiment: Unilateral Urethral Obstruction (UUO) model of renal fibrosis: clinical histopathology scores; assay type: in vivo, rats; parameters: key to Glomerulosclerosis clinical score / Interstitial nephritis clinical score / Collagen fiber deposition clinical score / Nephropathy clinical score: 0=no more or absence; 1=low; 2=moderate; 3=high; 4=severe
Method: Starting on Day 0, animals in group 2 were administered daily doses of the vehicle for 14 days. Starting on Day 0, animals in group 3 were administered daily doses of Compound A (10 mg/kg) for 14 days. A design of the UUO study is depicted in FIG. 24.
Blind clinical nephropathy scores were conducted for all animals in the study. Glomerulosclerosis, interstitial nephritis, collagen fiber deposition, and nephropathy were each assessed for all experimental rats, and a total clinical score was determined for each rat. The scoring system represented the degree or percentage of lesions in the whole kidney. Clinical score assessments were performed on Day 14.

[2] = UUO study: clinical observations; assay type: in vivo; conditions: UUO rats; 10 mg/kg
[3] = test system: hydroxyproline; experiment: Bleomycin IPF model: hydroxyproline content in lung lysates; assay type: in vivo, C57BI/6J mice; parameters: Hydroxyproline Levels, Mean: unit not given here
Method: Male C57BI/6J mice, aged 12 weeks with an approximate weight of 25-30 g were obtained from Jackson Laboratories (Bar Harbor, ME). Animals were acclimated for two weeks prior to study initiation, and were randomized into the experimental groups outlined in Table 32.
Intratracheal (IT) administration of Bleo or PBS control was conducted at the start of the study (Day 0). […] Animals were weighed on Day 0, and indexed boluses of PBS control (Group 1) or Bleo (Groups 2-6) were delivered by IT administration.
Following administration of Bleo, animals (n=10/group) were included in the study if they met the following guidelines on Day 7: (1) a predictable 5% loss in body weight, and (2) the presence of fibrotic pulmonary lesions, detected by micro-CT imaging. 10 animals from Group 1 additionally proceeded as controls. Animals that continued in the study on Day 7 received an oral gavage (OG) administration of PBS, Compound A (1 mg/kg, 3 mg/kg, 10 mg/kg), or Pirfenidone (300 mg/kg), as outlined in Table 31 in 25 μL boluses every other day (QOD), starting on Day 7. Compound A was formulated in 5% (v/v) DMSO/15% (v/v) PEG 400/80% (v/v) E-TPGS in purified water.
Animals were euthanized on Day 21 following Micro-CT imaging, and the right lung was collected for biochemical analysis, and the left lung was inflation-fixed for morphological assessments. A resection of the right lung was weighed and homogenized to determine total hydroxyproline levels by colorimetric assay, and the remaining lung lysate was saved for future analyses.

[4] = test system: anti-dsDNA antibodies; experiment: SLE (lupus) model: anti-dsDNA antibodies in serum by ELISA; assay type: in vivo, MRL/MpJ-Faslpr mice
Method: Female MRL/MpJ-Faslpr mice (The Jackson Laboratory) were used to assess the efficacy of Compound A in treating lupus. Starting when animals were 10 weeks of age, protein concentration in urine was measured using urine dipsticks.
At the start of the study, each group in the study had two animals that were 9 weeks old, and all others were 10 weeks old. Dosing of all animals with the test compounds began when the older animals were 11 weeks old. […] […] Dosing was at a consistent time each dosing day throughout the study.
Compound A may be formulated as illustrated in Experimental Method A (see Table 2E.). […] A stock solution of Compound A in DMSO (stock solution concentration of Compound A of 40 mg/mL) was prepared and aliquots for weekly preparations were frozen at −20° C. On each preparation day, a stock solution aliquot was thawed and diluted with other vehicle components to the desired concentration. Formulated Compound A and vehicle were at room temperature for dosing.
The study began when the older animals were 11 weeks old, and concluded when the older animals were 19 weeks old. Body weight was recorded once a week, with the exception of two weight measurements taken the first week of the study (when the older animals were 11 weeks old). Proteinuria was measured in the urine of animals with urine dipsticks once a week, starting when the older animals were 10 weeks old. […] Blood samples were taken retro-orbitally at the start of the study to establish a baseline (15 animals, 3 per group), and when the older animals were 16 weeks (all animals) and when animals were 19 weeks (all animals) at the conclusion of the study. Blood urea nitrogen (BUN) was measured in all animals at study termination in blood samples. After blood collection, animals were euthanized, perfused with PBS, and the left kidneys were collected and weighed and fixed in 10% buffered formalin. Left kidneys were then processed to a formalin-fixed, paraffin-embedded (FFPE) block, and histology was analyzed in Periodic Acid-Schiff-stained sections (1 section per slide), using the criteria described in Alperovich et al., Lupus, 16:18-24 (2007). Right kidneys were weighed and snap-frozen at −80° C. Spleens were also collected and weighed. SLE in animals treated with a BET inhibitor and vehicle.
Anti-dsDNA antibody test measures the amount of antibody to double-stranded deoxyribonucleic acid (anti-dsDNA) that may be present in the blood. Anti-dsDNA antibodies are highly specific markers of SLE as these antibodies are not thought to be present in other kinds of autoimmune disorder.

[5] = Rat PK study #4 (Compound A PO 0.2 and 1.0 mg/kg, propylene glycol formulation); assay type: in vivo, Lewis rats; conditions: 1 mg/kg and 10 mg/kg doses, rats
[6] = UUO rats, individual animals 1-8

Cn1cc(-c2ccccc2)c(-c2cn(C)c(=O)c3[nH]c(-c4cnn(C(F)(F)F)c4)cc23)cc1=O [Compound A, 6-methyl-4-(1-methyl-2-oxo-5-phenyl-1,2-dihydropyridin-4-yl)-2-(1-(trifluoromethyl)-1H-pyrazol-4-yl)-1,6-dihydro-7H-pyrrolo[2,3-c]pyridin-7-one]
Total histology score (FIG. 26D) ([1]; UUO + Compound A (10 mg/kg) relative to sham treated animals): marked decrease in total histology score | Collagen fiber deposition clinical score [1, 6]: 1 (4×) and 2 (3×) and 3 | Glomerulosclerosis clinical score [1, 6]: 0 | Interstitial nephritis clinical score [1, 6]: 2 (4×) and 3 (4×) | Nephropathy clinical score [1, 6]: 1 and 2 (7×) | Total score [1, 6]: 4 and 7 (3×) and 5 (3×) and 8 | Clinical histopathology scores / histological indicators of fibrosis relative to UUO + vehicle ([1]; UUO rats, 10 mg/kg PO QD, 10 mg/kg): reduced levels of interstitial nephritis, collagen fiber deposition, and nephropathy, as well as total clinical scores; also recorded: reduced the severity of all histological indicators of fibrosis; also recorded: ameliorates clinical symptoms associated with UUO | Clinical observations assessed daily [2]: soft stools on just one study day | Hydroxyproline Levels, Mean ([3]; Bleo + Compound A (1 mg/kg) OG QOD from D7): 0.05281 | Hydroxyproline Levels, Mean ([3]; Bleo + Compound A (3 mg/kg) OG QOD from D7): 0.05418 | Hydroxyproline Levels, Mean ([3]; Bleo + Compound A (10 mg/kg) OG QOD from D7): 0.04627 | Hydroxyproline levels relative to Group 2 ([3]; Day 21, 1 mg/kg and 3 mg/kg): reduced levels of hydroxyproline | Hydroxyproline levels, lower than IPF control group (Bleo+Saline) ([3]; Day 21, 10 mg/kg): about 60.4% | Anti-dsDNA Antibodies in serum, mean ([4]; Compound A 1 mg/kg PO QD, Week 16): 240 units/mL | Anti-dsDNA Antibodies in serum, mean ([4]; Compound A 1 mg/kg PO QD, Week 19): 149 units/mL | Anti-dsDNA Antibodies in serum, mean ([4]; Compound A 3 mg/kg PO QD, Week 16): 112 units/mL | Anti-dsDNA Antibodies in serum, mean ([4]; Compound A 3 mg/kg PO QD, Week 19): 94 units/mL | Anti-dsDNA Antibodies in serum, mean ([4]; Compound A 10 mg/kg PO QD, Week 16): 47 units/mL | Anti-dsDNA Antibodies in serum, mean ([4]; Compound A 10 mg/kg PO QD, Week 19): 57 units/mL | Anti-dsDNA antibodies in serum ([4]; Week 16, 1 mg/mL): did not appear to be effective | Anti-dsDNA antibodies in serum ([4]; Week 16 and Week 19, 3 mg/mL): positive effect in reducing levels | Anti-dsDNA antibodies in serum versus Vehicle group ([4]; Week 16 and Week 19, Compound A (10 mg/mL) and Cyclophosphamide): effective in reducing levels to well below that seen with the Vehicle administered group | Anti-dsDNA antibodies in serum ([4]; Week 19, 1 mg/mL): effective in reducing the levels | duration of exposure above the free EC50 BD2 BRD4 [5]: 24 h

From patent US20260217701A1, “SELECTIVE BET INHIBITORS AND USES THEREOF” (Tay Therapeutics Limited, priority 2022, published 2026)
